Measured values taken from patent US5763395A, “Stabilized lanthionine bacteriocin compositions” (Ambi Inc., priority 1995, dated 1998).
Several values for one entry are separate records, joined by “and”; a condition that tells them apart may be missing. Equal entries are not always repeated.

What was measured:
[1] = Nisin stability in topical germicide formulations under stressed conditions (RPHPLC); settings: for Residual nisin concentration as a percentage of the theoretical concentration: 5 days 40° C., pH 6, additive 1 mM (nisin = control)
From the text: i) Analytical reverse phase high pressure liquid chromatography (RPHPLC). The analyte (nisin) in solution is passed through a column of hydrophic beads to which the nisin tends to bind. The solution flowing through the column is then made progressively more hydrophobic by increasing acetonitrile concentration until it causes the nisin to be released from the beads and eluted from the column. The emergence of the nisin from the column is detected by measuring the absorbance of light at 210 nm by the effluent.
In order to expedite the execution of these experiments the formulations were subjected to "stressed" conditions, ie pH 6 and 40° C.; both intended to accelerate any degradation effects taking place. The stability of nisin in the formulations was evaluated by RPHPLC.
Formulations were prepared with nisin at 25 μg/ml and titrated to pH 6. […]

[2] = Commonly used antioxidants tested for protection of nisin in formulation; format: physicochemical; settings: methods of Example 2
Procedure: In order to further analyze the nisin degradation associated with one particular surfactant/emulsifier, polysorbate, material was obtained from as many manufacturers as possible. Where possible, multiple production batches were obtained from each manufacturer. Other emulsifiers or surfactants believed to closely resemble polysorbate in their properties as well as dissimilar surfactants were also tested. An oral rinse formulation containing nisin was prepared using each of these compounds and, after incubation, samples were analyzed to evaluate nisin stability.
A number of commonly used antioxidants were tested for their ability to protect nisin in formulation using the methods described in Example 2. None of the compounds tested gave satisfactory protection of nisin.

[3] = Glycerol/sorbitol batches and chelating agents screened for effects on nisin stability in oral rinse formulations (RPHPLC); format: physicochemical
Procedure: i) Analytical reverse phase high pressure liquid chromatography (RPHPLC).
Formulations of nisin useful as oral rinses comprising EDTA and the humectant glycerol were also prepared and analyzed by RPHPLC.
Glycerol and sorbitol from a number of sources, and a number of alternative chelators, were screened (Tables 2 and 3).

[4] = T-MAZ 20 1%, 6 days at 40° C., initial nisin 25 μg/ml, label nisin = no methionine
[5] = T-MAZ 20 BATCH 348, 2 weeks at 40° C., nisin formulated at 25 μg/ml, label nisin = water control
[6] = T-MAZ 20 BATCH 357, 2 weeks at 40° C., nisin formulated at 25 μg/ml, label nisin = water control
[7] = T-MAZ 20 batch 348, EDTA 1 mM, nisin 25 μg/ml, samples jd6-35-H 49-52
[8] = T-MAZ 20 batch 348, citrate 0.1%, nisin 25 μg/ml, samples jd6-35-H 53-56
[9] = T-MAZ 20 batch 348, citrate 0.3%, nisin 25 μg/ml, samples jd6-35-H 57-60
[10] = T-MAZ 20 batch 348, citrate 1.0%, nisin 25 μg/ml, samples jd6-35-H 61-64
[11] = T-MAZ 20 batch 357, EDTA 1 mM, nisin 25 μg/ml, samples jd6-35-H 33-36
[12] = T-MAZ 20 batch 357, citrate 0.1%, nisin 25 μg/ml, samples jd6-35-H 37-40
[13] = T-MAZ 20 batch 357, citrate 0.3%, nisin 25 μg/ml, samples jd6-35-H 41-44
[14] = T-MAZ 20 batch 357, citrate 1.0%, nisin 25 μg/ml, samples jd6-35-H 45-48

## COC(=O)C(N)CCSC (racemic) [DL-methionine methyl ester]
[1]; [4]
  Residual nisin concentration: 21.9 µg/mL and 20.8 µg/mL

## CS(=O)(=O)CCC(N)C(=O)O (racemic) [DL-methionine sulfone]
[1]; [4]
  Residual nisin concentration: 8.6 µg/mL

## C[S+]([O-])CCC(N)C(=O)O (racemic) [DL-methionine sulfoxide]
[1]; [4]
  Residual nisin concentration: 8.6 µg/mL

## CSCCC(N)C(=O)O (racemic) [DL-methionine]
[1]; [4]
  Residual nisin concentration: 19.7 µg/mL

## CSCCC(O)C(=O)O (racemic) [MHA, 2-hydroxy-4-(methylthio)butanoic acid]
[1]; T-MAZ 20 1%, 6 days at 40° C., initial nisin 25 μg/ml, label nisin = no methionine, listed as methionine hydroxy analog (MHA Novus)
  Residual nisin concentration: 19.8 µg/mL
[1]; T-MAZ 20 1%, 6 days at 40° C., initial nisin 25 μg/ml, label nisin = no methionine, listed as methionine hydroxy analog (Sigma)
  Residual nisin concentration: 18.1 µg/mL
[1]; [5]
  Residual nisin concentration: 23.4 µg/mL
[1]; [6]
  Residual nisin concentration: 22.5 µg/mL

## O[C@H](CS)[C@H](O)CS (racemic) [dithiothreitol]
[2]
  Protection of nisin in formulation by antioxidants, in words: aggravated the stability problem

## N[C@@H](CS)C(=O)O [CySH, cysteine]
[1]; [7]
  Residual nisin concentration as a percentage of the theoretical concentration: 51%
[1]; [8]
  Residual nisin concentration as a percentage of the theoretical concentration: 36%
[1]; [9]
  Residual nisin concentration as a percentage of the theoretical concentration: 29%
[1]; [10]
  Residual nisin concentration as a percentage of the theoretical concentration: 33%
[1]; [11]
  Residual nisin concentration as a percentage of the theoretical concentration: 85%
[1]; [12]
  Residual nisin concentration as a percentage of the theoretical concentration: 29%
[1]; [13]
  Residual nisin concentration as a percentage of the theoretical concentration: 36%
[1]; [14]
  Residual nisin concentration as a percentage of the theoretical concentration: 31%

## CSCC[C@H](N)C(=O)O [L-methionine]
[1]; [4]
  Residual nisin concentration: 19.9 µg/mL

## NCCCC[C@H](N)C(=O)O [Lys, lysine]
[1]; [7]
  Residual nisin concentration as a percentage of the theoretical concentration: 56%
[1]; [8]
  Residual nisin concentration as a percentage of the theoretical concentration: 45%
[1]; [9]
  Residual nisin concentration as a percentage of the theoretical concentration: 47%
[1]; [10]
  Residual nisin concentration as a percentage of the theoretical concentration: 49%
[1]; [11]
  Residual nisin concentration as a percentage of the theoretical concentration: 80%
[1]; [12]
  Residual nisin concentration as a percentage of the theoretical concentration: 71%
[1]; [13]
  Residual nisin concentration as a percentage of the theoretical concentration: 71%
[1]; [14]
  Residual nisin concentration as a percentage of the theoretical concentration: 71%

## O=C1O[C@H]([C@@H](O)CO)C(O)=C1O [ascorbate, ascorbic acid]
[2]
  Protection of nisin in formulation by antioxidants, in words: aggravated the stability problem

## O=C(O)CC(O)(CC(=O)O)C(=O)O [citrate]
[3]
  Effect of humectant (glycerol, sorbitol) and chelating agent on nisin stability, in words: superior to EDTA

## N[C@@H](CS(=O)(=O)O)C(=O)O [cysteic acid]
[1]; [5]
  Residual nisin concentration: 9.6 µg/mL
[1]; [6]
  Residual nisin concentration: 19.5 µg/mL

## N[C@@H](CSSC[C@H](N)C(=O)O)C(=O)O [cystine]
[1]; [5]
  Residual nisin concentration: 9.0 µg/mL
[1]; [6]
  Residual nisin concentration: 11.1 µg/mL

## N[C@@H](CSC[C@H](N)C(=O)O)C(=O)O [lanthionine]
[1]; [5]
  Residual nisin concentration: 10.7 µg/mL
[1]; [6]
  Residual nisin concentration: 18.2 µg/mL

## CSCC[C@H](N)C(=O)O [methionine]
[1]; [5]
  Residual nisin concentration: 23.3 µg/mL
[1]; [6]
  Residual nisin concentration: 23.2 µg/mL
[1]; [7]
  Residual nisin concentration as a percentage of the theoretical concentration: 80%
[1]; [8]
  Residual nisin concentration as a percentage of the theoretical concentration: 76%
[1]; [9]
  Residual nisin concentration as a percentage of the theoretical concentration: 73%
[1]; [10]
  Residual nisin concentration as a percentage of the theoretical concentration: 73%
[1]; [11]
  Residual nisin concentration as a percentage of the theoretical concentration: 84%
[1]; [12]
  Residual nisin concentration as a percentage of the theoretical concentration: 75%
[1]; [13]
  Residual nisin concentration as a percentage of the theoretical concentration: 76%
[1]; [14]
  Residual nisin concentration as a percentage of the theoretical concentration: 73%

## O=S([O-])[O-].[Na+].[Na+] [sodium sulfite]
[2]
  Protection of nisin in formulation by antioxidants, in words: aggravated the stability problem

## C1CSCN1 [thizaolidine, thiazolidine]
[1]; [5]
  Residual nisin concentration: 14.9 µg/mL
[1]; [6]
  Residual nisin concentration: 17.3 µg/mL
[1]; nisin 25 μg/ml, T-MAZ 20, propyleneglycol, 1-propanol, EDTA or citrate, pH 6, 40° C.
  Stabilization of nisin from degradation by sulfur-containing compounds, in words: To a lesser degree, nisin was also stabilized
